Laboratory results as given in patent US20230123334A1, “AMINO LIPID COMPOUND, PREPARATION METHOD THEREFOR, AND APPLICATION THEREOF” (SHENZHEN SHENXIN BIOTECHNOLOGY CO., LTD., priority 2020, published 2023).

Tests used:
[1] = test system: HEK293 cells; experiment: Preliminary screening as mRNA vectors, EGFP mRNA transfection of HEK293 cells; type: cell-based; settings: HEK293 cells, 96-well plates, EGFP mRNA 50 ng per well; percentage of GFP fluorescent cells relative to total number of cells (Hoechst)
In short: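 HEK293 cells in DMEM plus 10% FBS transfected in 96-well format with 50 ng EGFP mRNA per well; Lipofectamine2000 served as positive control. Read-out is the percentage of GFP-fluorescent cells among total cells, counted by Hoechst nuclear stain.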

[2] = test system: HEK293 cells; experiment: Preliminary screening as DNA vectors, GFP transfection of HEK293 cells; type: cell-based; settings: HEK293 cells; lipid/DOPE liposome with 75 ng plasmid DNA (psin-EGFP-IRES-Puro); number of cells expressing GFP divided by total number of nuclei (Hoechst)
In short: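 HEK293 cells in DMEM/10% FBS transfected with 75 ng EGFP plasmid per well complexed with amino lipid/DOPE liposomes in pH 5.6 sodium acetate. Hoechst nuclear stain added 20-24 h post-transfection, then cells cultured another 20-24 h. Confocal imaging gives GFP-positive cells as % of total nuclei.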

Structure (SMILES)	Absolute mRNA transfection efficiency in HEK293 cells [1] [%]	Absolute DNA transfection efficiency in HEK293 cells [2] [%]
CCCCCCCCCCCCCCCNc1nc(NCCCCCCCC)nc(NCCCN(C)C)n1 [Compound N8N15D6]	0.0	1.3
CCCCCCCCCCCCCCCCNc1nc(NCCCCCCCCCCC)nc(NCCCN2CCN(C)CC2)n1 [Compound N11N16D9]	0.9	0.0
CCCCCCCCCCCCCCCCCCNc1nc(NCCCCCCCCCCCCCCC)nc(NCCCN2CCOCC2)n1 [Compound N15N18D8]	0.0	0.9
CCCCCCCCCNc1nc(NCCCCCCCCC)nc(NCCN2CCOCC2)n1 [Compound N9N9D2]	0.1	0.0
CCCCCCCCCSc1nc(NCCN2CCN(C)CC2)nc(SCCCCCCCCC)n1 [Compound S9S9D5]	37.1	12.5
CCCCCCCCCCCCCCCCCCNc1nc(NCCCCCCCCCCCCCCCCCC)nc(NCCN2CCCCC2)n1 [Compound N18N18D4]	0.0	0.9
CCCCCCCCCCCCCNc1nc(NCCN(CC)CC)nc(N(CCCCCCCCCCCC)CCCCCCCCCCCC)n1 [N13^2N12D7]	2.9	0.2
CCCCCCCCCCCCCCCCNc1nc(NCCCCCCCCCCC)nc(NCCN(C)C)n1 [Compound N11N16D1]	0.6	0.4
CCCCCCCCCCCCCNc1nc(NCCCCCCCCCCCC)nc(NCCN(CC)CC)n1 [Compound N12N13D7]	0.3	0.2
CCCCCCCCCCCCCCCCSc1nc(NCCN2CCCC2)nc(SCCCCCCCCCCC)n1 [Compound S11S16D3]	0.7	6.2
CCCCCCCCCNc1nc(NCCCCCCC)nc(NCC2CCN(C)CC2)n1 [Compound N7N9D10]	0.1	0.4
CCCCCCCCCCCCCCCNc1nc(NCCCCCCCCCCCC)nc(NCCN(C)C)n1 [Compound N12N15D1]	1.0	1.5
CCCCCCCCCCCCCNc1nc(NCCN2CCCC2)nc(N(CCCCCCCCCCCC)CCCCCCCCCCCC)n1 [N13^2N12D3]	7.3	0.6
CCCCCCCCCCCCCNc1nc(NCCCCCCC)nc(NCCCN2CCN(C)CC2)n1 [Compound N7N13D9]	0.1	1.3
CCCCCCCCCCCCCCCNc1nc(NCCCCCCC)nc(NCCN(C)C)n1 [Compound N7N15D1]	1.3	1.0
CCCCCCCCCCCCCCCSc1nc(NCCN(CC)CC)nc(SCCCCCCCCCCC)n1 [Compound S11S15D7]	0.7	5.3
CCCCCCCCCCCCCCCCNc1nc(NCCCCCC)nc(NCCN2CCOCC2)n1 [Compound N6N16D2]	0.1	0.0
CCCCCCCCCCCCCCCCCCSc1nc(NCCN2CCCC2)nc(SCCCCCCCCCCCCCCCC)n1 [Compound S16S18D3]	1.8	1.9
CCCCCCCCCSc1nc(NCCN(C)C)nc(SCCCCCCCCC)n1 [Compound S9S9D1]	0.8	12.9
CCCCCCCCCNc1nc(NCCCCCCCC)nc(NCCCN2CCN(C)CC2)n1 [Compound N8N9D9]	0.0	0.0
CCCCCCCCCCCCCCCNc1nc(NCCCCCCCCCCCCC)nc(NCCCN2CCOCC2)n1 [Compound N13N15D8]	0.0	0.0
CCCCCCCCCCCCCCCCCCNc1nc(NCCCCCCCCCCCCCCC)nc(NCCN2CCCC2)n1 [Compound N15N18D3]	8.6	3.0
CCCCCCCCCCCCCCCSc1nc(NCCCN(C)C)nc(SCCCCCCCCCCCCCC)n1 [Compound S14S15D6]	0.1	0.2
CCCCCCCCCCCCCCCCCCNc1nc(NCCCCCCCCC)nc(NCCN2CCN(C)CC2)n1 [Compound N9N18D5]	0.9	0.0

Structure (SMILES)	Absolute mRNA transfection efficiency in HEK293 cells [1] [%]	Absolute DNA transfection efficiency in HEK293 cells [2] [%]
CCCCCCCCCCCCN(CCCCCCCCCCCC)c1nc(NCCCCCCCCC)nc(NCC2CCN(C)CC2)n1 [N9^2N12D10]	2.9	0.0
CCCCCCCCNc1nc(NCCCCCC)nc(NCCN2CCOCC2)n1 [Compound N6N8D2]	0.1	0.0
CCCCCCCCCCSc1nc(NCCCN(C)C)nc(SCCCCCCCCC)n1 [Compound S9S10D6]	74.6	21.2
CCCCCCCCCCCCCCCNc1nc(NCCCN(C)C)nc(N(CCCCCCCCCCCC)CCCCCCCCCCCC)n1 [N15^2N12D6]	9.0	6.3
CCCCCCCCCCCCCCCCCCNc1nc(NCCCCCCCCCCCC)nc(NCCN(C)C)n1 [Compound N12N18D1]	9.4	1.4
CCCCCCCCCCCCCNc1nc(NCCCCCCCCCCCC)nc(NCCN(C)C)n1 [Compound N12N13D1]	1.6	1.2
CCCCCCCCCCCCCCCCCCSc1nc(NCCN2CCOCC2)nc(SCCCCCCCCCCCCCCCC)n1 [Compound S16S18D2]	0.0	0.0
CCCCCCCCCCCCCCSc1nc(NCCN(CC)CC)nc(SCCCCCCCCCCCCCC)n1 [Compound S14S14D7]	2.8	2.3
CCCCCCCCCCCCCCCSc1nc(NCCN2CCN(C)CC2)nc(SCCCCCCCCCCCC)n1 [Compound S12S15D5]	1.4	0.1
CCCCCCCCCCCCNc1nc(NCCCCCC)nc(NCCCN(C)C)n1 [Compound N6N12D6]	0.1	0.3
CCCCCCCCCCCNc1nc(NCCCCCCCCC)nc(NCCN(CC)CC)n1 [Compound N9N11D7]	0.8	0.0
CCCCCCCCCCCCCCCSc1nc(NCCN2CCOCC2)nc(SCCCCCCCCCC)n1 [Compound S10S15D2]	0.7	7.7
CCCCCCCCCCCCCCCCCCSc1nc(NCCN2CCN(C)CC2)nc(SCCCCCCCC)n1 [Compound S8S18D5]	27.5	9.6
CCCCCCCCNc1nc(NCCCCCCCC)nc(NCCN2CCOCC2)n1 [Compound N8N8D2]	0.0	0.0
CCCCCCCCCCCCCCSc1nc(NCCN(CC)CC)nc(SCCCCCCCCCC)n1 [Compound S10S14D7]	1.3	2.6
CCCCCCCCCCCCCCCNc1nc(NCCCCCCCCCCCCCCC)nc(NCCN2CCCCC2)n1 [Compound N15N15D4]	0.8	1.3
CCCCCCCCCCCCCCCCNc1nc(NCCCCCCCCCCCCCCCC)nc(NCCN(C)C)n1 [Compound N16N16D1]	9.5	1.3
CCCCCCCCCCCCCCCNc1nc(NCCCCCCCCCCCCCCC)nc(NCCCN2CCOCC2)n1 [Compound N15N15D8]	0.0	0.0
CCCCCCCCCCCCCCCCCCSc1nc(NCCN(C)C)nc(SCCCCCCCCC)n1 [Compound S9S18D1]	2.7	4.9
CCCCCCCCCCCCCCCNc1nc(NCCCCCCCC)nc(NCCN(CC)CC)n1 [Compound N8N15D7]	0.0	0.0
CCCCCCCCCCCCCCCCSc1nc(NCCCN2CCOCC2)nc(SCCCCCCCCCCCCCC)n1 [Compound S14S16D8]	0.0	0.0
CCCCCCCCCCCCCCCSc1nc(NCC2CCN(C)CC2)nc(SCCCCCCCCCC)n1 [Compound S10S15D10]	19.4	55.8
CCCCCCCCCCCCCCCCCCNc1nc(NCCCCCCCCCCCCC)nc(NCCCN2CCOCC2)n1 [Compound N13N18D8]	0.0	0.0
